Reference: PMC5341070, “Small molecule inhibitors block Gas6-inducible TAM activation and tumorigenicity” (Scientific Reports, 2017)
Like-named read-outs stand apart in the source and are kept apart here. Blank lines part the entries; values can stand above or below the compound they belong to.

Experiments:
Experiment in all cases: biochemical
VEGFR2 = VEGFR2 (Homo sapiens, UniProt P35968); parameters: gene KDR; KINOMEscan (DiscoverX) competition binding screen of 97 human kinases, percent of control at 10 uM
Protocol: (§1) The KINOMEscan profiling of the inhibitors were performed as per directions by the manufacturer (DiscoverX) against a panel of human protein kinases.

EGFR(L858R) = EGFR(L858R) (Homo sapiens, UniProt P00533, L858R); parameters: KINOMEscan (DiscoverX) competition binding screen of 97 human kinases, percent of control at 10 uM
Protocol: as §1

CDK11 = biological target: T1, CDK11 (Homo sapiens, UniProt Q9BWU1); parameters: KINOMEscan (DiscoverX) competition binding screen of 97 human kinases, percent of control at 10 uM
T1 construct: gene CDK19
T1 sequence (Q9BWU1 whole entry): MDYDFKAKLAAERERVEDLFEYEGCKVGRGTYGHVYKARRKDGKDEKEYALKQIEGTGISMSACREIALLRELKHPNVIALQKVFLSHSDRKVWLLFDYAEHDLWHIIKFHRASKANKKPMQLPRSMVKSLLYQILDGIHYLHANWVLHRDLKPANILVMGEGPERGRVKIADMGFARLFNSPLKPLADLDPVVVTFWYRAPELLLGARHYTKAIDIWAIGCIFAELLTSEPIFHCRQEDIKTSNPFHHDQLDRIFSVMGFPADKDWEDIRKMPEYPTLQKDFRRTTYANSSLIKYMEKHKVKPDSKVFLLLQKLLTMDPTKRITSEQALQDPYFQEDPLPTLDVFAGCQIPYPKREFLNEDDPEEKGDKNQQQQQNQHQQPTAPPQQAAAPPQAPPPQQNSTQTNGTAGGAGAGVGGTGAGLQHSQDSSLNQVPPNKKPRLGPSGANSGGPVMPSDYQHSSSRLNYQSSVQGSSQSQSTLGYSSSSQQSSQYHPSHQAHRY
Protocol: as §1

ALK = ALK (Homo sapiens, UniProt Q9UM73); parameters: KINOMEscan (DiscoverX) competition binding screen of 97 human kinases, percent of control at 10 uM
Chain of ALK (Q9UM73 whole entry): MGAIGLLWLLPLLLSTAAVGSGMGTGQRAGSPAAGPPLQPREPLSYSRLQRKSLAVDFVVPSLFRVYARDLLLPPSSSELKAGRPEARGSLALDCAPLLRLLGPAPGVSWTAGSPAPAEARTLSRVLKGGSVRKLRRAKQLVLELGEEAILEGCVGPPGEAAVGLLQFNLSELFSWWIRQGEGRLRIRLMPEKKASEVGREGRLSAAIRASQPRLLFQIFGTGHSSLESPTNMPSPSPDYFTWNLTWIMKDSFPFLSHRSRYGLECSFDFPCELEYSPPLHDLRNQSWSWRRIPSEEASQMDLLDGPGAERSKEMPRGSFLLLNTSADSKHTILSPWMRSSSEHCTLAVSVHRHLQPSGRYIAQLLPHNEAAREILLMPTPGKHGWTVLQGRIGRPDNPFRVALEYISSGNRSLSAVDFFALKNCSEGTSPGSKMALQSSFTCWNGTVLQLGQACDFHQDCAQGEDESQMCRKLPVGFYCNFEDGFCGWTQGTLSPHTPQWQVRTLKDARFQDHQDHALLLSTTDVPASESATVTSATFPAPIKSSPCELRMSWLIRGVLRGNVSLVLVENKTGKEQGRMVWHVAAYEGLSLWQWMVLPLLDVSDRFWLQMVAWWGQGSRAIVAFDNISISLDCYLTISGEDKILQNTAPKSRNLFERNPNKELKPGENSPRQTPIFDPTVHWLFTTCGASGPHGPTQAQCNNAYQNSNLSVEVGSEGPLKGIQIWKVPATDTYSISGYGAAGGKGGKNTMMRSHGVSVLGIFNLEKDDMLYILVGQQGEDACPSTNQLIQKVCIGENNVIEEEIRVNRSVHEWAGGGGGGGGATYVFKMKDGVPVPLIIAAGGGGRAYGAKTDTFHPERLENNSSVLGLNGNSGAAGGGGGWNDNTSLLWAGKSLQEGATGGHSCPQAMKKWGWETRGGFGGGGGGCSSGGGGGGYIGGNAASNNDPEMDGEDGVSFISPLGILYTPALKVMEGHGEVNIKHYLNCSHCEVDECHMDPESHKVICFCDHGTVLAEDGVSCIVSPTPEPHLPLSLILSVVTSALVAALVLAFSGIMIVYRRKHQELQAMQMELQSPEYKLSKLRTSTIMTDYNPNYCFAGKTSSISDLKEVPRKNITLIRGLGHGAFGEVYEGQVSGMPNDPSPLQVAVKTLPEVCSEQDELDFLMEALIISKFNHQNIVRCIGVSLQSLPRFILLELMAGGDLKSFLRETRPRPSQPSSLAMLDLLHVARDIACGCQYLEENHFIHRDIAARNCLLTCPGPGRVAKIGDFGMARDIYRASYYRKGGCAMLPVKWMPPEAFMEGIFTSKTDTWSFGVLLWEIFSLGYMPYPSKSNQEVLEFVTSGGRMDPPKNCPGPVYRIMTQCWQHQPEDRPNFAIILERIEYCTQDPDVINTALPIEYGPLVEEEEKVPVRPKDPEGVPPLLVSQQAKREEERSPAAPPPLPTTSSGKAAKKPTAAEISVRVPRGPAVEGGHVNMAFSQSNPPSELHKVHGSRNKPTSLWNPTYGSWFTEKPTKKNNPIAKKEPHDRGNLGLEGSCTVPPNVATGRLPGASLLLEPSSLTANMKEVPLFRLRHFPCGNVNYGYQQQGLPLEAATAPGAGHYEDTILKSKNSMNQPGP
Protocol: as §1

PAK1 = PAK1 (Homo sapiens, UniProt Q13153); parameters: KINOMEscan (DiscoverX) competition binding screen of 97 human kinases, percent of control at 10 uM
Protocol: as §1

ABL1-nonphosphorylated = biological target: T2, ABL1-nonphosphorylated (Homo sapiens, UniProt P00519); parameters: KINOMEscan (DiscoverX) competition binding screen of 97 human kinases, percent of control at 10 uM
T2 construct: nonphosphorylated
Protocol: as §1

EGFR = EGFR (Homo sapiens, UniProt P00533); parameters: KINOMEscan (DiscoverX) competition binding screen of 97 human kinases, percent of control at 10 uM
Protocol: as §1

RAF1 = RAF1 (Homo sapiens, UniProt P04049); parameters: KINOMEscan (DiscoverX) competition binding screen of 97 human kinases, percent of control at 10 uM
Protocol: as §1

PAK2 = PAK2 (Homo sapiens, UniProt Q13177); parameters: KINOMEscan (DiscoverX) competition binding screen of 97 human kinases, percent of control at 10 uM
Chain of PAK2 (Q13177 whole entry): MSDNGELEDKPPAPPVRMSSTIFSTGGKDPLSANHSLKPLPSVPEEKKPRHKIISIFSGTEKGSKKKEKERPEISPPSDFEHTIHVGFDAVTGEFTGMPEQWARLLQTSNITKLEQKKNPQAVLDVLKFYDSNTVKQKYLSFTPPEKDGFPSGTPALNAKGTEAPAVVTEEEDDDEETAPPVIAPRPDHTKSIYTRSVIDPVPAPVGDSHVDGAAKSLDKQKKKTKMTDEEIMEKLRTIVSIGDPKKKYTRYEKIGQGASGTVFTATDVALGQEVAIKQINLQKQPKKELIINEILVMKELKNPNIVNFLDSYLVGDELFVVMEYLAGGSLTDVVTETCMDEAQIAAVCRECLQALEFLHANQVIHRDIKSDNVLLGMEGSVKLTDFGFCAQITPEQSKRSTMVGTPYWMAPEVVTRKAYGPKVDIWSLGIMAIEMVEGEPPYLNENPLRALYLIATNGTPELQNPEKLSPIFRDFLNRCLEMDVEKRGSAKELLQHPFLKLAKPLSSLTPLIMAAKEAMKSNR
Protocol: as §1

CDK7 = CDK7 (Homo sapiens, UniProt P50613); parameters: KINOMEscan (DiscoverX) competition binding screen of 97 human kinases, percent of control at 10 uM
Protocol: as §1

KIT(V559D,T670I) = KIT(V559D,T670I) (Homo sapiens, UniProt P10721, T670I/V559D); parameters: KINOMEscan (DiscoverX) competition binding screen of 97 human kinases, percent of control at 10 uM
Protocol: as §1

GSK3B = GSK3B (Homo sapiens, UniProt P49841); parameters: KINOMEscan (DiscoverX) competition binding screen of 97 human kinases, percent of control at 10 uM
Chain of GSK3B (P49841 whole entry): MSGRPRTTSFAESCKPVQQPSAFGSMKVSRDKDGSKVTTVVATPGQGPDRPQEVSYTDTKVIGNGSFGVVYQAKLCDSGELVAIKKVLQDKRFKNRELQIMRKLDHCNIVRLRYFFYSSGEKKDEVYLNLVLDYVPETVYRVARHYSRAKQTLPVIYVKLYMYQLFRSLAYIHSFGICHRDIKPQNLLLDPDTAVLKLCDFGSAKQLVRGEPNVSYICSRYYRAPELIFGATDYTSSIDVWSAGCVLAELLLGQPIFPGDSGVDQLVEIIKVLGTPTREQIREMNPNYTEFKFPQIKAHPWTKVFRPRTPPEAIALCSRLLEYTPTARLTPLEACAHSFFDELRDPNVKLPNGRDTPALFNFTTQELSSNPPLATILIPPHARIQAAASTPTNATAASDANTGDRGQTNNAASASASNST
Protocol: as §1

ZAP70 = ZAP70 (Homo sapiens, UniProt P43403); parameters: KINOMEscan (DiscoverX) competition binding screen of 97 human kinases, percent of control at 10 uM
Protocol: as §1

MEK1 = biological target: T3, MEK1 (Homo sapiens, UniProt Q02750); parameters: KINOMEscan (DiscoverX) competition binding screen of 97 human kinases, percent of control at 10 uM
T3 construct: gene MAP2K1
T3 sequence (Q02750 whole entry): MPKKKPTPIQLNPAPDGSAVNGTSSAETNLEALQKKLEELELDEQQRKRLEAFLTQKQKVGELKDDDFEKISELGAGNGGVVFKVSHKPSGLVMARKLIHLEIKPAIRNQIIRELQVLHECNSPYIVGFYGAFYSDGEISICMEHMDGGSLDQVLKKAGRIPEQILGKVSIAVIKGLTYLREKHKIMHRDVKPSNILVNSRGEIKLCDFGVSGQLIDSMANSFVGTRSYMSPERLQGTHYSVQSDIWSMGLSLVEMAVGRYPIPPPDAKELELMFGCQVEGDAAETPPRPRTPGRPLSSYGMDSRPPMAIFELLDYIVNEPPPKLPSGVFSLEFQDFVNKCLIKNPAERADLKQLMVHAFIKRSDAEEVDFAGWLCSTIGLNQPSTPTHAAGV
Protocol: as §1

ADCK3 = biological target: T4, ADCK3 (Homo sapiens, UniProt Q8NI60); parameters: KINOMEscan (DiscoverX) competition binding screen of 97 human kinases, percent of control at 10 uM
T4 construct: gene COQ8A
Protocol: as §1

MKNK1 = MKNK1 (Homo sapiens, UniProt Q9BUB5); parameters: KINOMEscan (DiscoverX) competition binding screen of 97 human kinases, percent of control at 10 uM
Chain of MKNK1 (Q9BUB5 whole entry): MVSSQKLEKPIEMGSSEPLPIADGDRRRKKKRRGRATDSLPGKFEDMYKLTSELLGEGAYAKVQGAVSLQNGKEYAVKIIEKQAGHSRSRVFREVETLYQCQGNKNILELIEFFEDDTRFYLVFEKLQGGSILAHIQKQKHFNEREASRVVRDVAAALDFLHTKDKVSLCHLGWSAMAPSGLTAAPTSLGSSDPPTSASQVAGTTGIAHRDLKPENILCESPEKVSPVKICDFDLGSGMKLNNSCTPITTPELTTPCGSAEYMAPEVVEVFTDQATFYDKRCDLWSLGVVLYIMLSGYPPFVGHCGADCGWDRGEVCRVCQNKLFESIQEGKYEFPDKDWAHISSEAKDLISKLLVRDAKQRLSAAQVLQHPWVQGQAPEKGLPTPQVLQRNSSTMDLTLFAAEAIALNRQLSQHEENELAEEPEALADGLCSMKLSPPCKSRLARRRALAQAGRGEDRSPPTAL
Protocol: as §1

FAK = biological target: T5, FAK (Homo sapiens, UniProt Q05397); parameters: KINOMEscan (DiscoverX) competition binding screen of 97 human kinases, percent of control at 10 uM
T5 construct: gene PTK2
Protocol: as §1

DYRK1B = DYRK1B (Homo sapiens, UniProt Q9Y463); parameters: KINOMEscan (DiscoverX) competition binding screen of 97 human kinases, percent of control at 10 uM; conditions: binding competition, % of control
Chain of DYRK1B (Q9Y463 whole entry): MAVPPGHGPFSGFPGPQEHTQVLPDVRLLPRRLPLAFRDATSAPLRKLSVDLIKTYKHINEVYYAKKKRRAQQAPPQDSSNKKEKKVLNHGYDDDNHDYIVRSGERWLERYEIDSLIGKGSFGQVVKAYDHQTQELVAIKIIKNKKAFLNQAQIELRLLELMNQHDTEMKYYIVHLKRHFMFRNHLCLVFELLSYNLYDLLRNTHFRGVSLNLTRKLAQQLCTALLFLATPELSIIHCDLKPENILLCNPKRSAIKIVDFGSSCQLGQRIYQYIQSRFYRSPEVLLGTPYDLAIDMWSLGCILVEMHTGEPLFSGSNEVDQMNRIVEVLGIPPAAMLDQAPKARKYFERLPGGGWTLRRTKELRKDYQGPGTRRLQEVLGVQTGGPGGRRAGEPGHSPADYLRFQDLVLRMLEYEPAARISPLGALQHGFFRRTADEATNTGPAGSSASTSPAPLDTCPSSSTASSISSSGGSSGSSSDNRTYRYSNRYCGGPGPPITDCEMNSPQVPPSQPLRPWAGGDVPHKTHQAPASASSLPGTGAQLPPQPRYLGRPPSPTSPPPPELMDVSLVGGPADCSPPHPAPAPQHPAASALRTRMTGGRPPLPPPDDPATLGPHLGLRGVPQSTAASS
Protocol: as §1

PCTK1 = biological target: T6, PCTK1 (Homo sapiens, UniProt Q00536); parameters: KINOMEscan (DiscoverX) competition binding screen of 97 human kinases, percent of control at 10 uM
T6 construct: gene CDK16
T6 sequence (Q00536 whole entry): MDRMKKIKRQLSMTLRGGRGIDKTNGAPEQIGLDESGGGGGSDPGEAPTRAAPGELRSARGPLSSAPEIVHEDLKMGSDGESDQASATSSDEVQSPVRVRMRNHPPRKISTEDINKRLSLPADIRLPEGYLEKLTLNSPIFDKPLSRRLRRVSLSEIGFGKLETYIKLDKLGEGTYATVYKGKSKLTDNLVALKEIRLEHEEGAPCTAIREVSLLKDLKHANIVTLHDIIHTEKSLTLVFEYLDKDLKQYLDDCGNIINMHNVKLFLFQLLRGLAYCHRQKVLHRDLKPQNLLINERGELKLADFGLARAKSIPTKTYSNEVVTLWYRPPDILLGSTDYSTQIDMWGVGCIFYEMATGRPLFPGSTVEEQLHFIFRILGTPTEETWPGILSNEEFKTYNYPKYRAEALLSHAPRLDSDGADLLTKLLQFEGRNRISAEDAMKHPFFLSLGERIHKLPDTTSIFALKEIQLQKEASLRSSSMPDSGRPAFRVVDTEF
Protocol: as §1

[1] = biological target: T7, ABL1(T315I)-phosphorylated (Homo sapiens, UniProt P00519, T315I); parameters: KINOMEscan (DiscoverX) competition binding screen of 97 human kinases, percent of control at 10 uM
T7 construct: phosphorylated
Protocol: as §1

BRAF = BRAF (Homo sapiens, UniProt P15056); parameters: KINOMEscan (DiscoverX) competition binding screen of 97 human kinases, percent of control at 10 uM
Protocol: as §1

TRKA = biological target: T8, TRKA (Homo sapiens, UniProt P04629); parameters: KINOMEscan (DiscoverX) competition binding screen of 97 human kinases, percent of control at 10 uM
T8 construct: gene NTRK1
Protocol: as §1

ULK2 = ULK2 (Homo sapiens, UniProt Q8IYT8); parameters: KINOMEscan (DiscoverX) competition binding screen of 97 human kinases, percent of control at 10 uM
Protocol: as §1

[2] = binding competition, % of control, read-out: RU-301 %Ctrl @ 10000nM
[3] = read-out: R428 %Ctrl @ 10000nM, binding competition

remaining binding at 10 µM (VEGFR2; [2]): 99%
remaining binding at 10 µM (EGFR(L858R); [2]): 94%
remaining binding at 10 µM (CDK11; [2]): 94%
remaining binding at 10 µM (ALK; [2]): 100%
remaining binding at 10 µM (PAK1; [2]): 97%
remaining binding at 10 µM (ABL1-nonphosphorylated; [2]): 100%
remaining binding at 10 µM (EGFR; [2]): 100%
remaining binding at 10 µM (RAF1; [2]): 84%
remaining binding at 10 µM (PAK2; [2]): 96%
remaining binding at 10 µM (CDK7; [2]): 85%
remaining binding at 10 µM (KIT(V559D,T670I); [2]): 85%
remaining binding at 10 µM (GSK3B; [2]): 98%
remaining binding at 10 µM (ZAP70; [2]): 76%
remaining binding at 10 µM (MEK1; [2]): 75%
remaining binding at 10 µM (ADCK3; [2]): 76%
remaining binding at 10 µM (MKNK1; [2]): 78%
remaining binding at 10 µM (FAK; [2]): 100%
remaining binding at 10 µM (DYRK1B; read-out: RU-301 %Ctrl @ 10000nM): 100%
remaining binding at 10 µM (PCTK1; [2]): 100%
remaining binding at 10 µM [1, 2]: 100%
remaining binding at 10 µM (BRAF; [2]): 99%
remaining binding at 10 µM (TRKA; [2]): 100%
remaining binding at 10 µM (ULK2; [2]): 97%
Structure (SMILES): Cc1cc(CSc2ccccc2C(=O)NCCNc2ccc(C(F)(F)F)cc2[N+](=O)[O-])on1 [RU-301]

percent of control binding at 10 µM (VEGFR2; [3]): 1%
percent of control binding at 10 µM (EGFR(L858R); [3]): 10%
percent of control binding at 10 µM (CDK11; [3]): 98%
percent of control binding at 10 µM (ALK; [3]): 60%
percent of control binding at 10 µM (PAK1; [3]): 74%
percent of control binding at 10 µM (ABL1-nonphosphorylated; [3]): 0.25%
percent of control binding at 10 µM (EGFR; [3]): 74%
percent of control binding at 10 µM (RAF1; [3]): 100%
percent of control binding at 10 µM (PAK2; [3]): 69%
percent of control binding at 10 µM (CDK7; [3]): 23%
percent of control binding at 10 µM (KIT(V559D,T670I); [3]): 0.05%
percent of control binding at 10 µM (GSK3B; [3]): 74%
percent of control binding at 10 µM (ZAP70; [3]): 33%
percent of control binding at 10 µM (MEK1; [3]): 3%
percent of control binding at 10 µM (ADCK3; [3]): 18%
percent of control binding at 10 µM (MKNK1; [3]): 19%
percent of control binding at 10 µM (FAK; [3]): 83%
remaining binding at 10 µM (DYRK1B; read-out: R428 %Ctrl @ 10000nM): 46%
percent of control binding at 10 µM (PCTK1; [3]): 90%
percent of control binding at 10 µM [1, 3]: 0.9%
percent of control binding at 10 µM (BRAF; [3]): 64%
percent of control binding at 10 µM (TRKA; [3]): 3.9%
percent of control binding at 10 µM (ULK2; [3]): 1.6%
Structure (SMILES): Nc1nc(Nc2ccc3c(c2)CC[C@@H](N2CCCC2)CC3)nn1-c1cc2c(nn1)-c1ccccc1CCC2 [R428]
